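The compound was tested at five concentrations on cells cultured in 96-well plates, with a 48-hour exposure period. At the TGI there is no net growth.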
Assays:
Assay in all cases: DTP human tumour cell line panel, 48 h
[1] = system: 786-0 renal
[2] = system: A498 renal
[3] = system: A549 NSCLC
[4] = system: ACHN renal
[5] = system: CAKI-1 renal
[6] = system: CCRF-CEM leukemia
[7] = system: COLO 205 colon
[8] = system: DLD-1 colon
[9] = system: DMS 114 small cell lung
[10] = system: DMS 273 small cell lung
[11] = system: EKVX NSCLC
[12] = system: HCC-2998 colon
[13] = system: HCT-116 colon
[14] = system: HCT-15 colon
[15] = system: HL-60(TB) leukemia
[16] = system: HOP-18 NSCLC
[17] = system: HOP-62 NSCLC
[18] = system: HOP-92 NSCLC
[19] = system: HT29 colon
[20] = system: IGROV1 ovarian
[21] = system: K-562 leukemia
[22] = system: KM12 colon
[23] = system: KM20L2 colon
[24] = system: LOX IMVI melanoma
[25] = system: LXFL 529 NSCLC
[26] = system: M14 melanoma
[27] = system: M19-MEL melanoma
[28] = system: MALME-3M melanoma
[29] = system: MOLT-4 leukemia
[30] = system: NCI-H226 lung
[31] = system: NCI-H23 lung
[32] = system: NCI-H460 lung
[33] = system: NCI-H522 lung
[34] = system: OVCAR-3 ovarian
[35] = system: OVCAR-4 ovarian
[36] = system: OVCAR-5 ovarian
[37] = system: OVCAR-8 ovarian
[38] = system: RPMI-8226 leukemia
[39] = system: RXF 393 renal
[40] = system: SF-268 CNS
[41] = system: SF-295 CNS
[42] = system: SK-MEL-2 melanoma
[43] = system: SK-MEL-28 melanoma
[44] = system: SK-MEL-5 melanoma
[45] = system: SK-OV-3 ovarian
[46] = system: SN12C renal
[47] = system: SNB-19 CNS
[48] = system: SNB-75 CNS
[49] = system: SNB-78 CNS
[50] = system: SW-620 colon
[51] = system: TK-10 renal
[52] = system: U251 CNS
[53] = system: UACC-257 melanoma
[54] = system: UACC-62 melanoma
[55] = system: UO-31 renal
[56] = system: SF-539 CNS
[57] = system: SR leukemia

CCN(CC)c1c(C(=O)/C=C/c2ccc(F)cc2)c(-c2ccccc2)nn(C)c1=O
TGI [1]: 23.2 µM
TGI [2]: 21.1 µM
TGI [3]: 43.2 µM
TGI [4]: 20.6 µM
TGI [5]: 69.6 µM
TGI [6]: 6.82 µM
TGI [7]: 14.8 µM
TGI [8]: 26.7 µM
TGI [9]: 19.2 µM
TGI [10]: 21 µM
TGI [11]: 55.3 µM
TGI [12]: 10.5 µM
TGI [13]: 14.5 µM
TGI [14]: 25.7 µM
TGI [15]: 15.7 µM
TGI [16]: 58.4 µM
TGI [17]: 28.6 µM
TGI [18]: 19.4 µM
TGI [19]: 18.6 µM
TGI [20]: 21.9 µM
TGI [21]: 34.1 µM
TGI [22]: 18.9 µM
TGI [23]: 44.4 µM
TGI [24]: 23.6 µM
TGI [25]: 19.9 µM
TGI [26]: 25.6 µM
TGI [27]: 25.1 µM
TGI [28]: 27.8 µM
TGI [29]: 5.91 µM
TGI [30]: 34 µM
TGI [31]: 16.5 µM
TGI [32]: 18.8 µM
TGI [33]: 13.9 µM
TGI [34]: 21.2 µM
TGI [35]: 20.5 µM
TGI [36]: 41.9 µM
TGI [37]: 19.1 µM
TGI [38]: 9.89 µM
TGI [39]: 11 µM
TGI [40]: 35.8 µM
TGI [41]: 34 µM
TGI [42]: 16.7 µM
TGI [43]: 31.5 µM
TGI [44]: 21.1 µM
TGI [45]: 60.8 µM
TGI [46]: 21.8 µM
TGI [47]: 58.4 µM
TGI [48]: 22.5 µM
TGI [49]: 44.9 µM
TGI [50]: 34.8 µM
TGI [51]: 38.5 µM
TGI [52]: 19.1 µM
TGI [53]: 21.2 µM
TGI [54]: 33.1 µM
TGI [55]: 24.4 µM

CC(C)C(NCc1c2ccccc2[n+]([O-])c2ccccc12)C(=O)O (stereo unspecified)
TGI [1]: > 100 µM
TGI [2]: > 100 µM
TGI [3]: > 100 µM
TGI [4]: > 100 µM
TGI [5]: > 100 µM
TGI [6]: > 100 µM
TGI [7]: > 100 µM
TGI [8]: > 100 µM
TGI [9]: > 100 µM
TGI [10]: > 100 µM
TGI [11]: > 100 µM
TGI [12]: > 100 µM
TGI [13]: > 100 µM
TGI [14]: > 100 µM
TGI [15]: 76 µM
TGI [16]: > 100 µM
TGI [17]: > 100 µM
TGI [18]: 53.2 µM
TGI [19]: > 100 µM
TGI [20]: > 100 µM
TGI [21]: > 100 µM
TGI [22]: > 100 µM
TGI [23]: > 100 µM
TGI [24]: > 100 µM
TGI [25]: > 100 µM
TGI [26]: > 100 µM
TGI [28]: > 100 µM
TGI [29]: > 100 µM
TGI [30]: > 100 µM
TGI [31]: > 100 µM
TGI [32]: > 100 µM
TGI [33]: > 100 µM
TGI [34]: > 100 µM
TGI [35]: > 100 µM
TGI [36]: > 100 µM
TGI [37]: > 100 µM
TGI [38]: 86.5 µM
TGI [40]: > 100 µM
TGI [41]: > 100 µM
TGI [42]: > 100 µM
TGI [43]: > 100 µM
TGI [44]: > 100 µM
TGI [45]: > 100 µM
TGI [46]: > 100 µM
TGI [47]: > 100 µM
TGI [48]: > 100 µM
TGI [49]: > 100 µM
TGI [50]: > 100 µM
TGI [51]: > 100 µM
TGI [52]: > 100 µM
TGI [53]: > 100 µM
TGI [54]: > 100 µM
TGI [55]: > 100 µM

C[C@]12CCC(=O)C(O)=C1CCC2=O
TGI [1]: > 100 µM
TGI [2]: > 100 µM
TGI [3]: > 100 µM
TGI [4]: > 100 µM
TGI [5]: > 100 µM
TGI [6]: > 100 µM
TGI [7]: > 100 µM
TGI [8]: > 100 µM
TGI [10]: > 100 µM
TGI [11]: > 100 µM
TGI [12]: > 100 µM
TGI [13]: > 100 µM
TGI [14]: > 100 µM
TGI [15]: > 100 µM
TGI [16]: > 100 µM
TGI [17]: > 100 µM
TGI [18]: > 100 µM
TGI [19]: > 100 µM
TGI [20]: > 100 µM
TGI [22]: > 100 µM
TGI [23]: > 100 µM
TGI [24]: > 100 µM
TGI [25]: > 100 µM
TGI [26]: > 100 µM
TGI [27]: > 100 µM
TGI [28]: > 100 µM
TGI [29]: > 100 µM
TGI [30]: > 100 µM
TGI [32]: > 100 µM
TGI [33]: > 100 µM
TGI [34]: > 100 µM
TGI [35]: > 100 µM
TGI [36]: > 100 µM
TGI [37]: > 100 µM
TGI [38]: > 100 µM
TGI [39]: > 100 µM
TGI [40]: > 100 µM
TGI [41]: > 100 µM
TGI [56]: > 100 µM
TGI [43]: > 100 µM
TGI [44]: > 100 µM
TGI [45]: > 100 µM
TGI [46]: > 100 µM
TGI [47]: > 100 µM
TGI [48]: > 100 µM
TGI [49]: > 100 µM
TGI [57]: > 100 µM
TGI [50]: > 100 µM
TGI [51]: > 100 µM
TGI [52]: > 100 µM
TGI [53]: > 100 µM
TGI [54]: > 100 µM
TGI [55]: > 100 µM
